Patent publication US10590109B2, “Heterocyclic compounds used as FGFR inhibitors” (Nanjing InnoCare Pharma Tech Co., Ltd., priority 2016, dated 2020)

Experiments:
Format in all cases: biochemical
[1] = target: human recombinant FGFR1 catalytic structural domain protein (Homo sapiens (Human), UniProt P11362); assay: FGFR1 activity inhibition test (HTRF kinase assay); details: 40 μM ATP
Protocol: FGFR1 Activity Inhibition Test
The influence of the compound according to the present invention on the activity of fibroblast growth factor receptor 1 (FGFR1) was evaluated by an in vitro kinase assay experiment.
(§1) The experimental method is summarized as follows:
The in vitro activity of FGFR1 was determined by assaying the phosphorylation level of the substrate in the kinase reaction, by means of an HTRF kinase assay kit.
(§2) If the IC50 value of the compound was very low, the initial concentration of the compound could be reduced.
(§3) After 60 min, the enzyme reaction was terminated by EDTA in the assay solution, and the phosphorylated products were identified by both the Eu^3+ labeled cage-shaped antibody (donor) and the streptavidin labeled XL665 antibody (receptor) at the same time. […] The inhibition percentage of the compound against FGFR1 activity could be calculated with the following formula: Inhibition percentage=100−100*(signalcompound−signalnegative control)/(signalpositive control−signalnegative control)
The IC50 value of the compound was calculated by the following formula, from 10 concentration points, with XLfit (ID Business Solutions Ltd., UK): Y=Bottom+(Top−Bottom)/(1+10^((Log IC50−X)*slope factor))
Where, Y is the inhibition percentage, Bottom is the bottom plateau of the curve (the bottom plateau of the S-type curve), Top is the top plateau of the curve (the top plateau of the S-type curve), and X is the log value of the compound concentration to be measured.

[2] = target: human recombinant FGFR3 catalytic structural domain protein (Homo sapiens (Human), UniProt P22607); assay: FGFR3 activity inhibition test (HTRF kinase assay); details: 90 μM ATP
Protocol: FGFR3 Activity Inhibition Test
The influence of the compound according to the present invention on the activity of fibroblast growth factor receptor 3 (FGFR3) was evaluated by an in vitro kinase assay experiment.
as §1
The in vitro activity of FGFR3 was determined by assaying the phosphorylation level of the substrate in the kinase reaction, by means of an HTRF kinase assay kit. The reaction buffer comprised the following components: 5-fold diluted Enzymatic buffer/kinase 5× (Cisbio, Catalog number 62EZBFDD) (main ingredient: 50 mM HEPES, pH 7.0), 5 mM MgCl2, 1 mM DTT; the human recombinant FGFR3 catalytic structural domain protein (amino acids 399-806) was commercially available from Sino Biological Inc., diluted with the reaction buffer to a 0.3 ng/μL kinase solution; the substrate reaction solution comprised a biotin labeled tyrosine kinase substrate diluted with the reaction buffer to 1000 nM (Cisbio, catalog number 62TK0PEC), and 90 μM ATP, and the assay solution comprised an Eu^3+ labeled cage-shaped antibody (Cisbio, Catalog number 61T66KLB) diluted with the assay buffer (Cisbio, Catalog number 62SDBRDF) to 0.125 ng/μL, and 62.5 nM streptavidin labeled XL665 (Cisbio, Catalog number 610SAXLB).
The compound was dissolved and diluted in 100% DMSO to 100 μM, then 4-fold-series diluted with DMSO to a minimum concentration of 0.0061 μM, and each concentration point was then 40-fold diluted with the reaction buffer. If the IC50 value of the compound was very low, the initial concentration of the compound could be reduced.
4 μL of a compound solution and 2 μL of an FGFR3 kinase solution were added into a 384 well assay plate (Thermo, Catalog number 264706), mixed uniformly and then incubated for 15 min at room temperature; subsequently, 4 μL of the substrate reaction solution was added therein, and the reaction mixture was incubated for 60 min at room temperature; and then 10 μL of an assay solution of an equal volume to the reaction was added therein and mixed uniformly, followed by placement at room temperature. After 60 min, the enzyme reaction was terminated by EDTA in the assay solution, and the phosphorylated products were identified by both the Eu^3+ labeled cage-shaped antibody (donor) and the streptavidin labeled XL665 antibody (receptor) at the same time. After the excitation with laser, the donors and receptors that were close to each other experienced energy resonance transfer, and the energy transferred from the donor (620 nm) to the receptor (665 nm) could be detected with Envision. The ratio of 665/620 is in positive correlation to the phosphorylation degree of the substrate, thereby to detect the FGFR3 kinase activity. […] The inhibition percentage of the compound against […] activity could be calculated with the following formula: Inhibition percentage=100−100*(signalcompound−signalnegative control)/(signalpositive control−signalnegative control)
(§4) The IC50 value of the compound was calculated by the following formula, from 10 concentration points, with XLfit (ID Business Solutions Ltd., UK): Y=Bottom+(Top−Bottom)/(1+10^((Log IC50−X)*slope factor)) Where, Y is the inhibition percentage, Bottom is the bottom plateau of the curve (the bottom plateau of the S-type curve), Top is the top plateau of the curve (the top plateau of the S-type curve), and X is the log value of the compound concentration to be measured.

[3] = target: human recombinant FGFR4 catalytic structural domain protein (Homo sapiens (Human), UniProt P22455); assay: FGFR4 activity inhibition test (HTRF kinase assay); details: 90 μM ATP
Protocol: FGFR4 Activity Inhibition Test
The influence of the compound according to the present invention on the activity of fibroblast growth factor receptor 4 (FGFR4) was evaluated by an in vitro kinase assay experiment.
as §1
The in vitro activity of FGFR4 was determined by assaying the phosphorylation level of the substrate in the kinase reaction, by means of an HTRF kinase assay kit.
as §2
as §3, with “FGFR4” for “FGFR1”
as §4

Chain of human recombinant FGFR4 catalytic structural domain protein (P22455 460-802): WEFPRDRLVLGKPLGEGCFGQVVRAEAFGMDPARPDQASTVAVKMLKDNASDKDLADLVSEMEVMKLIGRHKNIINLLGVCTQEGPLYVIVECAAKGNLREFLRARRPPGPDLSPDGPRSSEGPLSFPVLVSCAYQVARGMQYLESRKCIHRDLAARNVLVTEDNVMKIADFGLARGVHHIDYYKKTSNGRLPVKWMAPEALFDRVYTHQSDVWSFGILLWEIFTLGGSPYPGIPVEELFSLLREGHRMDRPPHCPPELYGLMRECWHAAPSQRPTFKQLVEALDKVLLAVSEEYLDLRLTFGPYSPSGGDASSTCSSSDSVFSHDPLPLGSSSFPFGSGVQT
Chain of human recombinant FGFR3 catalytic structural domain protein (P22607 399-806): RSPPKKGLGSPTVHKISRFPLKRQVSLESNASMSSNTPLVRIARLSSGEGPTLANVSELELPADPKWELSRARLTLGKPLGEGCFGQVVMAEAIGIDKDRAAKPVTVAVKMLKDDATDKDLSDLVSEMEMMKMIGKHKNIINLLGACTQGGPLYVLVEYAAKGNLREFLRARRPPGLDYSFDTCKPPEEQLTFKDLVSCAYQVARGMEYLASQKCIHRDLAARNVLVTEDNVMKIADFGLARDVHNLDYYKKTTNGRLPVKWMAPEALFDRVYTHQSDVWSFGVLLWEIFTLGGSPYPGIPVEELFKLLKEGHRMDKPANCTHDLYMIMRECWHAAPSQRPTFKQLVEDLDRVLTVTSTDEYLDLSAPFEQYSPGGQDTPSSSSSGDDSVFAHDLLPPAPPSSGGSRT
Chain of human recombinant FGFR1 catalytic structural domain protein (P11362 other isoform, or with tags, fused parts or gaps): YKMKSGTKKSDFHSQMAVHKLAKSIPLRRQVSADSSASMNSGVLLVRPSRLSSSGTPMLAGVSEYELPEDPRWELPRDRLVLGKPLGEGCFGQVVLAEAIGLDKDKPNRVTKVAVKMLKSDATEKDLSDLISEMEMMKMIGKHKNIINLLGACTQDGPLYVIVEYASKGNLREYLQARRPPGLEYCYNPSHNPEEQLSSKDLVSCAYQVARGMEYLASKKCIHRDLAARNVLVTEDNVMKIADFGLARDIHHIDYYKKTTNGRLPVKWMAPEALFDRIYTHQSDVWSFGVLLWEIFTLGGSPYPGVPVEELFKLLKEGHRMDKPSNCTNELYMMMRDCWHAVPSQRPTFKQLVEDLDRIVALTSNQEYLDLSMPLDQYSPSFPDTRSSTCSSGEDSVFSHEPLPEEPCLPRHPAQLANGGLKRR

IC50 [1]: > 1000 nM | IC50 [2]: > 1000 nM | IC50 [3]: < 10 nM
Structure (SMILES): COC[C@@H](C)Oc1cc(NC(=O)N(C)c2ccc(CN3CCOCC3=O)c(C=O)n2)ncc1C#N [Compound 14, (R)-3-(5-cyano-4-((1-methoxyprop-2-yl)oxo)pyrid-2-yl)-1-(6-formyl-5-((3-carbonylmorpholino)methyl)pyrid-2-yl)-1-methylurea]
